PubChem BioAssay (NCI)
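Assay format: 96-well plates, 48-hour exposure. Here, GI50 denotes the concentration required for 50% inhibition of growth. TGI marks complete inhibition of growth.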

Tests used:
Experiment in all cases: NCI anticancer screen, dose series, 48 h
HS 578T breast = system: HS 578T breast
SF-295 CNS = system: SF-295 CNS
MDA-MB-231 breast = system: MDA-MB-231 breast
SF-539 CNS = system: SF-539 CNS
KM12 colon = system: KM12 colon
SNB-19 CNS = system: SNB-19 CNS
BT-549 breast = system: BT-549 breast
HCC-2998 colon = system: HCC-2998 colon
MALME-3M melanoma = system: MALME-3M melanoma
A498 renal = system: A498 renal
NCI-H460 lung = system: NCI-H460 lung
MCF7 breast = system: MCF7 breast
UACC-62 melanoma = system: UACC-62 melanoma
HT29 colon = system: HT29 colon
RPMI-8226 leukemia = system: RPMI-8226 leukemia
NCI-H522 lung = system: NCI-H522 lung
U251 CNS = system: U251 CNS
CAKI-1 renal = system: CAKI-1 renal
MDA-MB-435 = system: MDA-MB-435
NCI-H23 lung = system: NCI-H23 lung
HOP-62 NSCLC = system: HOP-62 NSCLC
SK-MEL-5 melanoma = system: SK-MEL-5 melanoma
SR leukemia = system: SR leukemia
IGROV1 ovarian = system: IGROV1 ovarian
CCRF-CEM leukemia = system: CCRF-CEM leukemia
COLO 205 colon = system: COLO 205 colon
NCI/ADR-RES ovarian = system: NCI/ADR-RES ovarian
OVCAR-3 ovarian = system: OVCAR-3 ovarian
HL-60(TB) leukemia = system: HL-60(TB) leukemia
SW-620 colon = system: SW-620 colon
TK-10 renal = system: TK-10 renal
LOX IMVI melanoma = system: LOX IMVI melanoma
UO-31 renal = system: UO-31 renal
HCT-15 colon = system: HCT-15 colon
OVCAR-4 ovarian = system: OVCAR-4 ovarian
A549 NSCLC = system: A549 NSCLC
786-0 renal = system: 786-0 renal
OVCAR-5 ovarian = system: OVCAR-5 ovarian
PC-3 prostate = system: PC-3 prostate
M14 melanoma = system: M14 melanoma
ACHN renal = system: ACHN renal
SK-MEL-2 melanoma = system: SK-MEL-2 melanoma
SK-OV-3 ovarian = system: SK-OV-3 ovarian
K-562 leukemia = system: K-562 leukemia
EKVX NSCLC = system: EKVX NSCLC
HCT-116 colon = system: HCT-116 colon
SK-MEL-28 melanoma = system: SK-MEL-28 melanoma
SN12C renal = system: SN12C renal
OVCAR-8 ovarian = system: OVCAR-8 ovarian
MOLT-4 leukemia = system: MOLT-4 leukemia
UACC-257 melanoma = system: UACC-257 melanoma
T-47D breast = system: T-47D breast
SNB-75 CNS = system: SNB-75 CNS
NCI-H226 lung = system: NCI-H226 lung
HOP-92 NSCLC = system: HOP-92 NSCLC
DU-145 prostate = system: DU-145 prostate
SF-268 CNS = system: SF-268 CNS
RXF 393 renal = system: RXF 393 renal

COc1ccc(CN(Cc2ccc(OC)cc2)C(=O)CC2(O)CCc3ccccc3C2)cc1 (stereo not given)
TGI (HS 578T breast): > 100 µM
TGI (SF-295 CNS): > 100 µM
TGI (MDA-MB-231 breast): > 100 µM
TGI (SF-539 CNS): > 100 µM
TGI (KM12 colon): > 100 µM
TGI (SNB-19 CNS): > 100 µM
TGI (BT-549 breast): > 100 µM
TGI (HCC-2998 colon): > 100 µM
TGI (MALME-3M melanoma): > 100 µM
TGI (A498 renal): > 100 µM
TGI (NCI-H460 lung): > 100 µM
TGI (MCF7 breast): > 100 µM
TGI (UACC-62 melanoma): > 100 µM
TGI (HT29 colon): > 100 µM
TGI (RPMI-8226 leukemia): > 100 µM
TGI (NCI-H522 lung): > 100 µM
TGI (U251 CNS): > 100 µM
TGI (CAKI-1 renal): > 100 µM
TGI (MDA-MB-435): > 100 µM
TGI (NCI-H23 lung): > 100 µM
TGI (HOP-62 NSCLC): > 100 µM
TGI (SK-MEL-5 melanoma): > 100 µM
TGI (SR leukemia): > 100 µM
TGI (IGROV1 ovarian): > 100 µM
TGI (CCRF-CEM leukemia): > 100 µM
TGI (COLO 205 colon): 57.4 µM
TGI (NCI/ADR-RES ovarian): > 100 µM
TGI (OVCAR-3 ovarian): > 100 µM
TGI (HL-60(TB) leukemia): 80.1 µM
TGI (SW-620 colon): > 100 µM
TGI (TK-10 renal): > 100 µM
TGI (LOX IMVI melanoma): > 100 µM
TGI (UO-31 renal): > 100 µM
TGI (HCT-15 colon): > 100 µM
TGI (OVCAR-4 ovarian): > 100 µM
TGI (A549 NSCLC): > 100 µM
TGI (786-0 renal): > 100 µM
TGI (OVCAR-5 ovarian): > 100 µM
TGI (PC-3 prostate): > 100 µM
TGI (M14 melanoma): > 100 µM
TGI (ACHN renal): > 100 µM
TGI (SK-MEL-2 melanoma): > 100 µM
TGI (SK-OV-3 ovarian): > 100 µM
TGI (K-562 leukemia): > 100 µM
TGI (EKVX NSCLC): > 100 µM
TGI (HCT-116 colon): > 100 µM
TGI (SK-MEL-28 melanoma): > 100 µM
TGI (SN12C renal): > 100 µM
TGI (OVCAR-8 ovarian): > 100 µM
TGI (MOLT-4 leukemia): 56 µM
TGI (UACC-257 melanoma): > 100 µM
TGI (T-47D breast): > 100 µM
TGI (SNB-75 CNS): > 100 µM
TGI (NCI-H226 lung): > 100 µM
TGI (HOP-92 NSCLC): > 100 µM
TGI (DU-145 prostate): > 100 µM

O=S(=O)(Nc1cccc(Cl)c1)c1ccc(-c2cnc(C3CC3)o2)cc1
GI50 (HS 578T breast): 0.679 µM
TGI (HS 578T breast): 16.6 µM
GI50 (SF-295 CNS): 0.394 µM
TGI (SF-295 CNS): 12 µM
GI50 (MDA-MB-231 breast): 2.45 µM
TGI (MDA-MB-231 breast): 22 µM
GI50 (SF-539 CNS): 0.683 µM
TGI (SF-539 CNS): 11.8 µM
GI50 (KM12 colon): 0.443 µM
TGI (KM12 colon): 16.6 µM
GI50 (SF-268 CNS): 3.28 µM
TGI (SF-268 CNS): 25.2 µM
GI50 (SNB-19 CNS): 1.31 µM
TGI (SNB-19 CNS): 35.8 µM
GI50 (BT-549 breast): 1.25 µM
TGI (BT-549 breast): 22.7 µM
GI50 (HCC-2998 colon): 2.87 µM
TGI (HCC-2998 colon): 17.1 µM
GI50 (MALME-3M melanoma): 10.3 µM
TGI (MALME-3M melanoma): 32 µM
GI50 (A498 renal): 0.453 µM
TGI (A498 renal): 9.03 µM
GI50 (NCI-H460 lung): 0.446 µM
TGI (NCI-H460 lung): 16.7 µM
GI50 (MCF7 breast): 0.398 µM
TGI (MCF7 breast): 51.6 µM
GI50 (UACC-62 melanoma): 0.47 µM
TGI (UACC-62 melanoma): 15.3 µM
GI50 (HT29 colon): 0.372 µM
TGI (HT29 colon): 12.2 µM
GI50 (NCI-H522 lung): 0.509 µM
TGI (NCI-H522 lung): 16.2 µM
GI50 (U251 CNS): 0.768 µM
TGI (U251 CNS): 19.8 µM
GI50 (CAKI-1 renal): 0.232 µM
TGI (CAKI-1 renal): 14 µM
GI50 (MDA-MB-435): 0.379 µM
TGI (MDA-MB-435): 16.7 µM
GI50 (NCI-H23 lung): 2.14 µM
TGI (NCI-H23 lung): 20.4 µM
GI50 (HOP-62 NSCLC): 0.74 µM
TGI (HOP-62 NSCLC): 16.3 µM
GI50 (SK-MEL-5 melanoma): 2.01 µM
TGI (SK-MEL-5 melanoma): 14.4 µM
GI50 (SR leukemia): 0.409 µM
TGI (SR leukemia): 32.4 µM
GI50 (IGROV1 ovarian): 0.662 µM
TGI (IGROV1 ovarian): 21.6 µM
GI50 (CCRF-CEM leukemia): 0.624 µM
TGI (CCRF-CEM leukemia): > 100 µM
GI50 (RXF 393 renal): 0.835 µM
TGI (RXF 393 renal): 10.9 µM
GI50 (COLO 205 colon): 0.639 µM
TGI (COLO 205 colon): 6.18 µM
GI50 (NCI/ADR-RES ovarian): 0.581 µM
TGI (NCI/ADR-RES ovarian): 17 µM
GI50 (OVCAR-3 ovarian): 0.417 µM
TGI (OVCAR-3 ovarian): 12.3 µM
GI50 (HL-60(TB) leukemia): 0.388 µM
TGI (HL-60(TB) leukemia): 12.3 µM
GI50 (SW-620 colon): 0.409 µM
TGI (SW-620 colon): 31.3 µM
GI50 (TK-10 renal): 5.11 µM
TGI (TK-10 renal): 26.5 µM
GI50 (LOX IMVI melanoma): 0.617 µM
TGI (LOX IMVI melanoma): 18.4 µM
GI50 (UO-31 renal): 1.68 µM
TGI (UO-31 renal): 18.8 µM
GI50 (HCT-15 colon): 0.43 µM
TGI (HCT-15 colon): 20.3 µM
GI50 (OVCAR-4 ovarian): 2.92 µM
TGI (OVCAR-4 ovarian): 16.7 µM
GI50 (A549 NSCLC): 1.35 µM
TGI (A549 NSCLC): 44 µM
GI50 (786-0 renal): 3.9 µM
TGI (786-0 renal): 34.8 µM
GI50 (OVCAR-5 ovarian): 2.39 µM
TGI (OVCAR-5 ovarian): 18.3 µM
GI50 (PC-3 prostate): 0.668 µM
TGI (PC-3 prostate): 17.6 µM
GI50 (M14 melanoma): 0.593 µM
TGI (M14 melanoma): 24.3 µM
GI50 (ACHN renal): 0.925 µM
TGI (ACHN renal): 37 µM
GI50 (SK-MEL-2 melanoma): 0.695 µM
TGI (SK-MEL-2 melanoma): 20.3 µM
GI50 (SK-OV-3 ovarian): 5.41 µM
TGI (SK-OV-3 ovarian): 24.9 µM
GI50 (K-562 leukemia): 0.305 µM
TGI (K-562 leukemia): 66 µM
GI50 (EKVX NSCLC): 2.88 µM
TGI (EKVX NSCLC): 40.3 µM
GI50 (HCT-116 colon): 0.48 µM
TGI (HCT-116 colon): 18.7 µM
GI50 (SK-MEL-28 melanoma): 10.2 µM
TGI (SK-MEL-28 melanoma): 23 µM
GI50 (SN12C renal): 1.62 µM
TGI (SN12C renal): 20.9 µM
GI50 (OVCAR-8 ovarian): 1.95 µM
TGI (OVCAR-8 ovarian): 32.9 µM
GI50 (MOLT-4 leukemia): 0.657 µM
TGI (MOLT-4 leukemia): 60.1 µM
GI50 (UACC-257 melanoma): 6.98 µM
TGI (UACC-257 melanoma): 30.2 µM
GI50 (T-47D breast): 0.519 µM
TGI (T-47D breast): 22 µM
GI50 (SNB-75 CNS): 0.208 µM
TGI (SNB-75 CNS): 1.96 µM
GI50 (NCI-H226 lung): 1.9 µM
TGI (NCI-H226 lung): 17.2 µM
GI50 (HOP-92 NSCLC): 1.74 µM
TGI (HOP-92 NSCLC): 15.2 µM
GI50 (DU-145 prostate): 2.68 µM
TGI (DU-145 prostate): 29.1 µM
